Literature values in US12383538B2, “Use of mTOR inhibitors for prevention of intestinal polyp growth and cancer” (priority 2013, dated 2025).

Test system: colorectal adenomas
Settings: adults with FAP, 6-month trial

In the case of Cc1ccc(-c2cc(C(F)(F)F)nn2-c2ccc(S(N)(=O)=O)cc2)cc1 [celecoxib], the tolerability is listed as “well tolerated”.
